Measurements from ChEMBL document CHEMBL1137357, “Further synthetic and biological studies on vitamin D hormone antagonists based on C24-alkylation and C2alpha-functionalization of 25-dehydro-1alpha-hydroxyvitamin D(3)-26,23-lactones” (J Med Chem, 2006).

Target: T1, Vitamin D3 receptor (Homo sapiens) (UniProt P11473)
T1 sequence (whole entry): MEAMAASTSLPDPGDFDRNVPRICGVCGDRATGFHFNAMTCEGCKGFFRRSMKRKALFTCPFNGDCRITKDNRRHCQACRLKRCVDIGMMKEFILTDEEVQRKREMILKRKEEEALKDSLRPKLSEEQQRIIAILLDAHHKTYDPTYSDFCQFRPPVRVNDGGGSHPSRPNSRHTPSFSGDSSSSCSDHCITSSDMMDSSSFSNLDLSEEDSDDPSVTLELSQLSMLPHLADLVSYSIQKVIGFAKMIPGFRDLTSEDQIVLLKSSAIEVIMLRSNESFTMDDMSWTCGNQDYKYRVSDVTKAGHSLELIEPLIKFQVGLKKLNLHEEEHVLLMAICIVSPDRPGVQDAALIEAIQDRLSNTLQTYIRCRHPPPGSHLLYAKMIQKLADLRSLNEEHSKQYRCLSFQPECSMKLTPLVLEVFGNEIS
Assay: Antagonist activity against 1-alpha,25-dihydroxy vitamin D3-induced HL60 cell differentiation by NBT reduction method relative to TEI-9647
Assay type: functional, cell-based
Set-up: scale not given: the % may be the effect or the level left
Settings: HL-60

Activity [%]	SMILES
6	C=C1/C(=C\C=C2/CCC[C@]3(C)[C@@H]([C@H](C)C[C@H]4OC(=O)C(=C)[C@@H]4CC)CC[C@@H]23)C[C@@H](O)C[C@@H]1O
25	C=C1/C(=C\C=C2/CCC[C@]3(C)[C@@H]([C@H](C)C[C@H]4OC(=O)C(=C)[C@@H]4CC)CC[C@@H]23)C[C@@H](O)[C@H](OCCCO)[C@@H]1O
66	C=C1C[C@@H](C[C@@H](C)[C@H]2CC[C@H]3/C(=C/C=C4/C[C@@H](O)[C@H](OCCCO)[C@H](O)C4=C)CCC[C@]23C)OC1=O
1220	C=C1/C(=C\C=C2/CCC[C@]3(C)[C@@H]([C@H](C)C[C@@H]4OC(=O)C(=C)[C@@H]4CC(C)C)CC[C@@H]23)C[C@@H](O)[C@H](C)[C@@H]1O
1160	C=C1/C(=C\C=C2/CCC[C@]3(C)[C@@H]([C@H](C)C[C@@H]4OC(=O)C(=C)[C@@H]4CCCC)CC[C@@H]23)C[C@@H](O)[C@H](CCCO)[C@@H]1O
40	C=C1C(=O)O[C@@H](C[C@@H](C)[C@H]2CC[C@H]3/C(=C/C=C4/C[C@@H](O)C[C@H](O)C4=C)CCC[C@]23C)[C@@H]1CC(C)C
216	C=C1/C(=C\C=C2/CCC[C@]3(C)[C@@H]([C@H](C)C[C@@H]4OC(=O)C(=C)[C@H]4CCCC)CC[C@@H]23)C[C@@H](O)[C@H](C)[C@@H]1O
158	C=C1/C(=C\C=C2/CCC[C@]3(C)[C@@H]([C@H](C)C[C@@H]4OC(=O)C(=C)[C@H]4CC)CC[C@@H]23)C[C@@H](O)[C@H](OCCCO)[C@@H]1O
12	C=C1/C(=C\C=C2/CCC[C@]3(C)[C@@H]([C@H](C)C[C@H]4OC(=O)C(=C)[C@@H]4C)CC[C@@H]23)C[C@@H](O)[C@H](OCCCO)[C@@H]1O
124	C=C1/C(=C\C=C2/CCC[C@]3(C)[C@@H]([C@H](C)C[C@H]4OC(=O)C(=C)[C@@H]4CCC)CC[C@@H]23)C[C@@H](O)[C@H](OCCCO)[C@@H]1O
573	C=C1/C(=C\C=C2/CCC[C@]3(C)[C@@H]([C@H](C)C[C@H]4OC(=O)C(=C)[C@@H]4CCC)CC[C@@H]23)C[C@@H](O)[C@H](CCCO)[C@@H]1O
85	C=C1/C(=C\C=C2/CCC[C@]3(C)[C@@H]([C@H](C)C[C@H]4OC(=O)C(=C)[C@@H]4C)CC[C@@H]23)C[C@@H](O)[C@H](C)[C@@H]1O
4	C=C1/C(=C\C=C2/CCC[C@]3(C)[C@@H]([C@H](C)C[C@H]4OC(=O)C(=C)[C@@H]4CC(C)C)CC[C@@H]23)C[C@@H](O)[C@H](C)[C@@H]1O
600	C=C1/C(=C\C=C2/CCC[C@]3(C)[C@@H]([C@H](C)C[C@@H]4OC(=O)C(=C)[C@@H]4CC)CC[C@@H]23)C[C@@H](O)[C@H](OCCCO)[C@@H]1O
291	C=C1/C(=C\C=C2/CCC[C@]3(C)[C@@H]([C@H](C)C[C@@H]4OC(=O)C(=C)[C@H]4CC(C)C)CC[C@@H]23)C[C@@H](O)[C@H](OCCCO)[C@@H]1O
8	C=C1/C(=C\C=C2/CCC[C@]3(C)[C@@H]([C@H](C)C[C@H]4OC(=O)C(=C)[C@@H]4C)CC[C@@H]23)C[C@@H](O)[C@H](CCCO)[C@@H]1O
303	C=C1/C(=C\C=C2/CCC[C@]3(C)[C@@H]([C@H](C)C[C@H]4OC(=O)C(=C)[C@@H]4CCCC)CC[C@@H]23)C[C@@H](O)[C@H](CCCO)[C@@H]1O
